From publication PMC9719863 (Molecular Metabolism, 2022)
Read-outs that look alike come from different tables or passages of the source. *1 amine or outer side, *2 acyl side, *3 side chain or, on linkers, in order; H or OH if unused. Where a SMILES comes first, the peptide text is derived from it. Where no end group is shown, it is not given here. Side-chain parts run from the residue outwards. [ ]: non-standard residue; d: D form. The star is where a group is joined. γGlu = O=C(O)[C@H](CCC(=O)[*:2])N[*:1]; Palmitoyl = CCCCCCCCCCCCCCCC(=O)*; PhLac = O=C(O)[C@@H](O)Cc1ccccc1

What was measured:
[1] = molecular target: T1, hGIPR (Homo sapiens, UniProt P48546); type: binding
T1 sequence (P48546 22-466): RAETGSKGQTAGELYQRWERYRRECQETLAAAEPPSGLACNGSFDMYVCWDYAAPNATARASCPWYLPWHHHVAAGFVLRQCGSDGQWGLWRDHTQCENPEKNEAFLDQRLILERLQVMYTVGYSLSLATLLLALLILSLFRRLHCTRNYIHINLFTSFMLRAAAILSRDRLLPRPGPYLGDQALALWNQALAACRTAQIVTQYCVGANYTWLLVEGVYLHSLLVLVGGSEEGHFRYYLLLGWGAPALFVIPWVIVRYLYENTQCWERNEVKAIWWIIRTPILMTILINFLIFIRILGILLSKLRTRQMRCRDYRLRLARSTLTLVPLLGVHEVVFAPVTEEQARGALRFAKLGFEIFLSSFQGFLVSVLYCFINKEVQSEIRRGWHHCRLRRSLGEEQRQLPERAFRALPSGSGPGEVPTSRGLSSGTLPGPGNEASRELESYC

[2] = molecular target: T2, mGIPR (Mus musculus, UniProt Q0P543); type: binding
T2 sequence (Q0P543 19-460): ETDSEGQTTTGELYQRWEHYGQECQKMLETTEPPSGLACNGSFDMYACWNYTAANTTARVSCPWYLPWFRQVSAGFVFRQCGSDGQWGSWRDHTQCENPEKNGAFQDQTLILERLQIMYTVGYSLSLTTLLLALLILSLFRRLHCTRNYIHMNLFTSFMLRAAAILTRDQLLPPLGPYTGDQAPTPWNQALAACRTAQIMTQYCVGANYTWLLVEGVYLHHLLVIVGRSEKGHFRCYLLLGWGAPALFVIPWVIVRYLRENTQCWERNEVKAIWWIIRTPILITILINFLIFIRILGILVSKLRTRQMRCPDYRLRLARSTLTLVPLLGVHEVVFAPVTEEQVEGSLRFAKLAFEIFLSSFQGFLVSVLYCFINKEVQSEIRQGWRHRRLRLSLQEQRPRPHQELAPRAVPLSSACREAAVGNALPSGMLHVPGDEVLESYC

[3] = molecular target: T1, hGIPR; assay: cAMP CRE-luciferase assay in BHK cells expressing GIPR; type: cell-based; settings: agonist mode, without native ligand
[4] = molecular target: T2, mGIPR; assay: as above; type: cell-based; settings: for Agonism at the mGIPR (cAMP production by peptide alone): agonist mode, without native ligand
[5] = molecular target: T3, mouse GIP receptor (mouse) (UniProt Q0P543)
T3 sequence: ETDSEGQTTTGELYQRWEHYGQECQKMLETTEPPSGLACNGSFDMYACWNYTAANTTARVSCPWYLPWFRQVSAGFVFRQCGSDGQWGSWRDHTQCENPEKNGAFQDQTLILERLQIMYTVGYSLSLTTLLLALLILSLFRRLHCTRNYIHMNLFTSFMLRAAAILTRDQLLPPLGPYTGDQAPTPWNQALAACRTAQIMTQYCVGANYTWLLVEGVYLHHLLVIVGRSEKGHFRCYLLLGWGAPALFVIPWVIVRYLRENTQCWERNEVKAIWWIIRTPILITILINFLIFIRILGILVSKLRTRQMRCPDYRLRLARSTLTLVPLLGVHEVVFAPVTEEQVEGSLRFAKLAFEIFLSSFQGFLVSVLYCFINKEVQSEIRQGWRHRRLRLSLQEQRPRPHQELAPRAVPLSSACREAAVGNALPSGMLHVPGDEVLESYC

[6] = molecular target: T4, human GIP receptor (human) (UniProt P48546)
T4 sequence: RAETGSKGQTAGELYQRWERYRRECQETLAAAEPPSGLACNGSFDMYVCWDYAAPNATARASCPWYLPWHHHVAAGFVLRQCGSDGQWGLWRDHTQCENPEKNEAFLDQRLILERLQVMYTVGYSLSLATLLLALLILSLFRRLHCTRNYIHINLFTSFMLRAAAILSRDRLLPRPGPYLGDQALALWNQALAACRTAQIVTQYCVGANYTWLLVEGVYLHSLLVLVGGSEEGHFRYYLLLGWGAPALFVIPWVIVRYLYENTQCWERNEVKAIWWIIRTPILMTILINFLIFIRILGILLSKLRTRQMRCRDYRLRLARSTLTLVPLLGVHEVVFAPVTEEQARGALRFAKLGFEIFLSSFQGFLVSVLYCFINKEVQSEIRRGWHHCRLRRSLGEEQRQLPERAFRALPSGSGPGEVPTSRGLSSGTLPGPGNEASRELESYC

CC[C@H](C)[C@H](NC(=O)[C@H](CO)NC(=O)[C@H](Cc1ccc(O)cc1)NC(=O)[C@H](CC(=O)O)NC(=O)[C@H](CO)NC(=O)[C@@H](NC(=O)[C@@H](O)Cc1ccccc1)[C@@H](C)CC)C(=O)N[C@@H](C)C(=O)N[C@@H](CC(C)C)C(=O)N[C@@H](CC(=O)O)C(=O)N[C@@H](CCCCN)C(=O)N[C@H](C(=O)N[C@@H](CCCNC(=N)N)C(=O)N[C@@H](CCC(N)=O)C(=O)N[C@@H](CCC(N)=O)C(=O)N[C@@H](CCC(=O)O)C(=O)N[C@@H](Cc1ccccc1)C(=O)N[C@H](C(=O)N[C@@H](CC(N)=O)C(=O)N[C@@H](Cc1c[nH]c2ccccc12)C(=O)N[C@@H](CC(C)C)C(=O)N[C@@H](CC(C)C)C(=O)N[C@@H](C)C(=O)N[C@@H](CCC(N)=O)C(=O)N[C@@H](CCCCN)C(=O)NCC(=O)O)C(C)C)[C@@H](C)CC [Peptide 5, [Pla6, L14, R18, E21] hGIP(6–31)] (H-[PhLac]ISDYSIALDKIRQQEFVNWLLAQKG-OH)
IC50 [1]: 2.98 ± 1.68 nM
IC50 [2]: 22.7 ± 7.9 nM
Agonism at the hGIPR (cAMP production by peptide alone) [3]: no significant agonism
Agonism at the mGIPR (cAMP production by peptide alone) [4]: no significant agonism

CC[C@H](C)[C@H](NC(=O)[C@H](CO)NC(=O)[C@H](Cc1ccc(O)cc1)NC(=O)[C@H](CC(=O)O)NC(=O)[C@H](CO)NC(=O)[C@@H](NC(=O)[C@H](Cc1ccccc1)NC(=O)[C@@H](NC(=O)CNC(=O)[C@@H](N)CCC(=O)O)[C@@H](C)O)[C@@H](C)CC)C(=O)N[C@@H](C)C(=O)N[C@@H](CCSC)C(=O)N[C@@H](CC(=O)O)C(=O)N[C@@H](CCCCN)C(=O)N[C@H](C(=O)N[C@@H](Cc1c[nH]cn1)C(=O)N[C@@H](CCC(N)=O)C(=O)N[C@@H](CCC(N)=O)C(=O)N[C@@H](CC(=O)O)C(=O)N[C@@H](Cc1ccccc1)C(=O)N[C@H](C(=O)N[C@@H](CC(N)=O)C(=O)N[C@@H](Cc1c[nH]c2ccccc12)C(=O)N[C@@H](CC(C)C)C(=O)N[C@@H](CC(C)C)C(=O)N[C@@H](C)C(=O)N[C@@H](CCC(N)=O)C(=O)N[C@@H](CCCCN)C(N)=O)C(C)C)[C@@H](C)CC [Peptide 1, hGIP(3–30), reference compound]
IC50 [2]: 35.1 ± 16.9 nM
Agonism at the hGIPR (cAMP production by peptide alone) [3]: partial agonism
IC50 [4]: > 6 µM
Agonism at the mGIPR (cAMP production by peptide alone) [4]: no significant agonism

CCCCCCCCCCCCCCCC(=O)N[C@@H](CCC(=O)NCCCC[C@H](NC(=O)[C@H](Cc1ccc(O)cc1)NC(=O)[C@H](CC(=O)O)NC(=O)[C@H](CO)NC(=O)[C@@H](NC(=O)[C@@H](O)Cc1ccccc1)[C@@H](C)CC)C(=O)N[C@H](C(=O)N[C@@H](C)C(=O)N[C@@H](CC(C)C)C(=O)N[C@@H](CC(=O)O)C(=O)N[C@@H](CCCCN)C(=O)N[C@H](C(=O)N[C@@H](CCCNC(=N)N)C(=O)N[C@@H](CCC(N)=O)C(=O)N[C@@H](CCC(N)=O)C(=O)N[C@@H](CCC(=O)O)C(=O)N[C@@H](Cc1ccccc1)C(=O)N[C@H](C(=O)N[C@@H](CC(N)=O)C(=O)N[C@@H](Cc1c[nH]c2ccccc12)C(=O)N[C@@H](CC(C)C)C(=O)N[C@@H](CC(C)C)C(=O)N[C@@H](C)C(=O)N[C@@H](CCC(N)=O)C(=O)N[C@@H](CCCCN)C(=O)NCC(=O)O)C(C)C)[C@@H](C)CC)[C@@H](C)CC)C(=O)O [Peptide 8, [Pla6, L14, R18, E21] hGIP(6–31)-K11 (γE-C16)] (H-[PhLac]ISDYK([γGlu-Palmitoyl])IALDKIRQQEFVNWLLAQKG-OH)
IC50 [1]: 0.5 ± 0.08 nM
IC50 [2]: 1.55 ± 0.07 nM
Agonism at the hGIPR (cAMP production by peptide alone) [3]: negligible cAMP production as agonists
Agonism at the mGIPR (cAMP production by peptide alone) [4]: negligible cAMP production as agonists

EGTFISDYSIALDKIRQQEFVNWLLAQK-NH2 [[L14, R18, E21] hGIP(3-30) amide]
maximal % inhibition of GIP-induced cAMP in BHK cells expressing mGIPR [5]: 86%
maximal % inhibition of GIP-induced cAMP in BHK cells expressing hGIPR [6]: 72%
